Holding throughout (format): cell-based
In assay [1] the test system is T-Rex 293 cells lacking increased expression of estrogen receptor alpha protein. Description: Cellular growth inhibition assay, T-Rex 293 cells, (−) doxycycline. As to conditions: T-REx-293, 72 h, 72 hours. How it is done:
(§1) Exemplary compounds were tested for the ability to inhibit the proliferation of the following types of cells: (i) a T-Rex 293 cell line having increased expression of estrogen receptor alpha protein from exposure to doxycycline and (ii) a T-Rex 293 cell line lacking increased expression of estrogen receptor alpha protein.
(§2) The following types of cells were prepared for this experiment: (i) a T-Rex 293 cell line having increased expression of estrogen receptor alpha protein from exposure to doxycycline and (ii) a T-Rex 293 cell line lacking increased expression of estrogen receptor alpha protein. The ability of the test compounds to inhibit proliferation of the foregoing cell types was evaluated according to the procedures set forth below.
(§3) The doxycycline-inducible estrogen receptor alpha protein expressing cell line was established using the following protocol: T-Rex 293 cells were purchased from Invitrogen (Cat #R71007) and transfected using Lipofectamine 2000 with the wild-type estrogen receptor alpha protein sequence cloned into the pcDNA4/TO vector. Transfected cells were selected using 400 μg/mL Zeocin (Invitrogen Cat #R25001). Following selection, single clones were raised and maintained in Dulbecco's Modified Eagle Medium (DMEM) supplemented with 10% w/w Tetracycline-free fetal bovine serum (FBS) and 250 μg/mL Zeocin. Clones were analyzed for expression of estrogen receptor alpha protein in the presence and absence of 3 ng/mL doxycycline (Sigma Cat #D9891), and a single doxycycline-inducible clone (hereinafter “SC”) was selected for use in downstream assays.
(§4) The SC cells were seeded on poly-D-lysine coated, black clear-bottom 384-well plates at 2500/well, in 25 μL Phenol Red Free Dulbecco's Modified Eagle Medium (DMEM) supplemented with 10% w/w charcoal-dextran treated fetal bovine serum (FBS) and 1% w/w pen-strep, with or without 3 ng/mL doxycycline. Pen-Strep is a commercially available mixture of penicillin G and streptomycin, which is used in mammalian cell culture media to prevent bacterial contamination. Phenol Red Free Dulbecco's Modified Eagle Medium (DMEM) supplemented with 10% w/w charcoal-dextran treated fetal bovine serum (FBS) and 1% w/w pen-strep, with or without 3 ng/mL doxycycline is herein referred to as Treatment Medium. Following seeding of cells in the plates, the plates were spun at 300×g for 30 seconds, then equilibrated to room temperature for 30 minutes, and then deposited in a humidified tissue culture incubator maintained at 37° C. with 5% CO2.
(§5) At 24 hours after seeding of the cells, dilutions of test compound were prepared in DMSO and dissolved in Treatment Medium, to achieve a final DMSO concentration of 0.5% w/w, thereby providing the Test Compound Solution. A 25 μL aliquot of the Test Compound Solution was added to cells in the well plates. An equal volume of a solution containing DMSO and Treatment Medium was used as a negative control. Following treatment of cells with Test Compound Solution or said equal volume of a solution containing DMSO and Treatment Medium, the plates were spun at 300×g for 30 seconds, and then left in an incubator for 72 hours.
(§6) At the end of the treatment duration, cell viability was quantified with CellTiter-Glo 2.0 reagent (Promega Cat #G9243). For this purpose, plates were equilibrated to room temperature for 30 minutes, and then 25 μL of CellTiter-Glo 2.0 reagent was added to cells in the plate wells. Plates were then agitated on a shaker for two minutes at 500 rpm and subsequently incubated at room temperature for 10 minutes. Following incubation, the plates were spun at 3000×g for 30 seconds, then sealed with an optical adhesive cover, and luminescence readings were measured with an EnVision Plate Reader (Perkin Elmer).
(§7) Data was normalized using zero luminescence for baseline. […]

In assay [2] the test system is T-Rex 293 cells having increased expression of estrogen receptor alpha protein. As to the kind of experiment: Cellular growth inhibition assay, T-Rex 293 cells, (+) doxycycline. The following applies: T-REx-293, 72 h, 72 hours. How it is done:
as §1, §2, §3, §4, §5, §6, §7

For assay [3], the system named is MCF7 cells (ATCC #HTB-22). Description: Cellular growth inhibition assay, MCF7 cells purchased from ATCC. The following applies: Homo sapiens, MCF7, 144 h, Table 8-A; MCF7 cells purchased from ATCC; six days; CellTiter-Glo; read-out: GI50. How it is done:
Exemplary compounds were tested for the ability to inhibit the proliferation of MCF7 cells.
MCF7 cells (ATCC #HTB-22 or ECACC #86012803) were cultured in RPMI 1640 medium supplemented with 10% heat-inactivated fetal bovine serum, 1% pen-strep, and 0.2 U/ml insulin. Cells were seeded in 25 μL of RPMI 1640 medium supplemented with 10% heat-inactivated fetal bovine serum, 1% pen-strep, 0.2 U/ml insulin in poly-D-lysine treated, black clear-bottom 384-well plates at 225 cells/well for MCF7 cells purchased from ECACC or 1,500 cells/well for MCF7 cells purchased from ATCC. Following seeding, plates were spun at 300×g for 30 seconds and cultured at 37° C. with 5% CO2 in a humidified tissue culture incubator.
At 24 hours after seeding, compounds were titrated in 100% DMSO and diluted in RPMI 1640 medium supplemented with 10% heat-inactivate fetal bovine serum, 1% pen-strep, and 0.2 U/ml insulin. A 25 μL aliquot of the compound/media mixture was added to cells, bringing the total volume in each well to 50 μL. An equal volume of DMSO without compound was used as a negative control. After treatment, plates were spun at 300×g for 30 seconds, then cultured at 37° C. with 5% CO2 for six days in a humidified tissue culture incubator.
On Day 6 of treatment, cell viability was quantified with CellTiter-Glo 2.0 reagent (Promega). Plates were equilibrated to room temperature for 30 minutes, then 25 μL of CellTiter-Glo 2.0 reagent was added to cells, bringing the total volume in each well to 75 μL. After reagent was added, plates were mixed on a shaker for two minutes at 500 rpm and then incubated at room temperature for 10 minutes. Following incubation, plates were spun at 3,000×g for 30 seconds, sealed with an optical adhesive cover, and luminescence readings were measured with an EnVision Plate Reader.
Data was normalized to 0 luminescence for baseline. A four-parameter, non-linear regression curve fit was applied to dose-response data in GraphPad Prism data analysis software to determine the half maximal growth inhibitory concentration (GI50) for each compound.

[4] abbreviates: Table 7-A, T-Rex 293 cells without doxycycline (lacking increased ERα expression), CellTiter-Glo, read-out: (−) Dox GI50.
[5] abbreviates: Table 7-A, T-Rex 293 cells with doxycycline (increased ERα expression), CellTiter-Glo, read-out: (+) Dox GI50.
Setting [6] is: T-Rex 293 cells without doxycycline, CellTiter-Glo 2.0, read-out: (−) Dox TRex ERa (GI50).
Where [7] appears, read: T-Rex 293 cells with doxycycline-induced ERα expression, CellTiter-Glo 2.0, read-out: (+) Dox TRex ERa (GI50).

Where two headings read alike, the source gives them in different places.

As for `Cc1sc2c(c1C)C(c1ccc(N3CCC(CN4CC(COc5ccc([C@H]6c7ccc(O)cc7CC[C@H]6c6ccccc6)cc5)C4)CC3)cc1)=N[C@@H](C)c1nnc(C)n1-2` [III-9], the GI50 is 50 to 500 nM in assay [1] (setting [4]), < 50 nM in assay [2] (setting [5]) and 50 to 500 nM in assay [3].
As to `Cc1sc2c(c1C)C(c1ccc(N3CCC(CN4CCN(c5ccc(C6=C(c7ccc(Cl)cc7Cl)CCCc7cc(C(=O)O)ccc76)cc5)CC4)CC3)cc1)=N[C@@H](Cc1ncco1)c1nnc(C)n1-2` [IV-14], the results for the GI50 in assay [1] (setting [4]), in assay [2] (setting [5]) and in assay [3] were 500 to 2500 nM, < 50 nM and < 50 nM, respectively.
For the molecule `Cc1sc2c(c1C)C(c1ccc(N3CCC(F)(CN4CCN(c5ccc(C6=C(c7ccc(Cl)cc7Cl)CCCc7cc(C(=O)O)ccc76)cc5)CC4)CC3)cc1)=N[C@@H](C)c1nnc(C)n1-2` [IV-27], the results for the GI50 in assay [1] (setting [4]), in assay [2] (setting [5]) and in assay [3] were 500 to 2500 nM, 50 to 500 nM and 50 to 500 nM, respectively.
For the molecule `CC1=C(c2c(F)cc(F)cc2F)C(c2ccc(N3CCC4(CCCN(CCOc5ccc(C6=N[C@@H](C)c7nnc(C)n7-c7sc(C)c(C)c76)cc5)C4)C3)cc2)Oc2ccc(O)cc21` (some centres unmarked) [V-17], the GI50 in assay [1] (setting [4]), in assay [2] (setting [5]) and in assay [3] was 50 to 500 nM in each case.
`Cc1sc2c(c1C)C(c1ccc(N3CCC(C(=O)N4CCN(c5ccc([C@@H]6c7ccc(O)cc7CC[C@@H]6c6ccccc6)cc5)CC4)CC3)cc1)=N[C@@H](C)c1nnc(C)n1-2` [III-119]: the results for the GI50 in assay [1] (setting [4]), in assay [2] (setting [5]) and in assay [3] were 500 to 2500 nM, 50 to 500 nM and 50 to 500 nM, respectively.
Take `Cc1sc2c(c1C)C(c1ccc(N3CCC(O)(CN4CCN(c5cc(F)c([C@@H]6c7ccc(O)cc7CC[C@@H]6c6ccccc6)cc5F)CC4)CC3)cc1F)=N[C@@H](C)c1nnc(C)n1-2` [III-304]: the GI50 in assay [1] (setting [4]) was 500 to 2500 nM; in assay [2] (setting [5]), < 50 nM; in assay [3], < 50 nM.
Turning to `Cc1sc2c(c1C)C(c1ccc(N3CC(O)(CC4CN(CC5CN(c6ccc([C@@H]7c8ccc(O)cc8CC[C@@H]7c7ccccc7)cc6)C5)C4)C3)cc1)=N[C@@H](C)c1nnc(C)n1-2` [III-241], the GI50 is 50 to 500 nM in assay [1] (setting [4]), < 50 nM in assay [2] (setting [5]) and < 50 nM in assay [3].
In the case of `Cc1sc2c(c1C)C(c1ccc(N3CC4(CCN(CC5CCN(c6ccc([C@@H]7c8ccc(O)cc8CC[C@@H]7c7ccccc7)cc6)CC5)CC4)C3)cc1)=N[C@@H](C)c1nnc(C)n1-2` [III-12], the GI50 in assay [1] (setting [4]) is 500 to 2500 nM; in assay [2] (setting [5]), < 50 nM; in assay [3] it was 50 to 500 nM.
The corresponding values for `Cc1sc2c(c1C)C(c1ccc(N3CC4(CCC(O)(CN5CCN(c6cc(F)c([C@@H]7c8ccc(O)cc8CC[C@@H]7c7ccc(F)cc7)c(F)c6)CC5)CC4)C3)cc1)=N[C@@H](C)c1nnc(C)n1-2` [III-266] are 500 to 2500 nM, < 50 nM and < 50 nM.
For `Cc1sc2c(c1C)C(c1ccc(N3CCC(O)(CN4CCN(c5ccc(C6=C(c7ccc(Cl)cc7)CCCc7cc(C(=O)O)ccc76)cc5)CC4)CC3)cc1)=N[C@@H](C)c1nnc(C)n1-2` [IV-57], the concentration for 50% growth inhibition (GI50) was 500 to 2500 nM in assay [1] (setting [4]), < 50 nM in assay [2] (setting [5]) and < 50 nM in assay [3].
With `CC1=C(c2c(F)cc(F)cc2F)[C@@H](c2ccc(OCC(=O)N3CCC4(CC3)CCN(c3ccc(C5=N[C@@H](C)c6nnc(C)n6-c6sc(C)c(C)c65)cc3)C4)cc2)Oc2ccc(O)cc21` [V-26], the concentration for 50% growth inhibition (GI50) in assay [1] (setting [4]) is 50 to 500 nM; in assay [2] (setting [5]), < 50 nM; in assay [3], 50 to 500 nM.
Consider `Cc1sc2c(c1C)C(c1ccc(OCCOCCOc3cc(F)c([C@@H]4c5[nH]c6ccccc6c5C[C@@H](C)N4CC(C)(C)F)c(F)c3)cc1)=N[C@@H](C)c1nnc(C)n1-2` [I-23, (S)-4-(4-(2-(2-(3,5-difluoro-4-((1R,3R)-2-(2-fluoro-2-methylpropyl)-3-methyl-2,3,4,9-tetrahydro-1H-pyrido[3,4-b]indol-1-yl)phenoxy)ethoxy)ethoxy)phenyl)-2,3,6,9-tetramethyl-6H-thieno[3,2-f][1,2,4]triazolo[4,3-a][1,4]diazepine], for which the GI50 in assay [1] (setting [6]) lay in the range of 500 to 2500 nM; in assay [2] (setting [7]), 500 to 2500 nM; in assay [3] it was 50 to 500 nM.
Take `CCN(CCOCCOCCOCCOCCOCCOCCCCCCCCc1cc(Cl)cc(NC(=O)NCc2ccc3c(c2)CN(C2CCC(=O)NC2=O)C3=O)c1)CCOc1ccc(C(=O)c2c(-c3ccc(O)cc3)sc3cc(O)ccc23)cc1` (centres unmarked) [II-1]: the 50% growth inhibitory concentration (GI50) in assay [3] was < 50 nM.
As for `CCN(CCCCCCCCc1cc(Cl)cc(NC(=O)NCc2ccc3c(c2)CN(C2CCC(=O)NC2=O)C3=O)c1)CCOc1ccc(C(=O)c2c(-c3ccc(O)cc3)sc3cc(O)ccc23)cc1` (centres unmarked) [II-3], in assay [3], the GI50 is < 50 nM.
Consider `COc1cc(N2CCN(CC3(O)CCN(c4ccc(C5=N[C@@H](C)c6nnc(C)n6-c6sc(C)c(C)c65)cc4)CC3)CC2)ccc1[C@H]1c2ccc(O)cc2CC[C@H]1c1ccc(F)cc1F` (single isomer, unassigned) [III-333], for which the 50% growth inhibitory concentration (GI50) in assay [1] (setting [4]) lay within 500 to 2500 nM; in assay [2] (setting [5]), 50 to 500 nM.
The corresponding values for `COc1cc(N2CCN(CC3(O)CCN(c4ccc(C5=N[C@@H](C)c6nnc(C)n6-c6sc(C)c(C)c65)cc4)CC3)CC2)ccc1[C@@H]1c2ccc(O)cc2CC[C@@H]1c1ccc(F)cc1F` (single isomer, unassigned) [III-334] are 500 to 2500 nM and < 50 nM.
On to `Cn1cc(-c2cc(C(C)(C)O)ccc2Oc2ccc(N3CCN(CC4CCN(c5ccc([C@@H]6c7ccc(O)cc7CC[C@@H]6c6ccccc6)cc5)CC4)CC3)cc2)c2cc[nH]c2c1=O` [I-18, 4-(2-(4-(4-((1-(4-((1R,2S)-6-hydroxy-2-phenyl-1,2,3,4-tetrahydronaphthalen-1-yl)phenyl)piperidin-4-yl)methyl)piperazin-1-yl)phenoxy)-5-(2-hydroxypropan-2-yl)phenyl)-6-methyl-1,6-dihydro-7H-pyrrolo[2,3-c]pyridin-7-one], for which the results for the GI50 in assay [1] (setting [6]) and in assay [2] (setting [7]) were 50 to 500 nM and < 50 nM, respectively.

For the origin of these results see patent US12558428B2, “Heterobifunctional compounds and their use in treating disease” (Halda Therapeutics OpCo, Inc., priority 2024, dated 2026).
